Assay results taken from ChEMBL document CHEMBL3784999, “Investigation of 4-amino-5-alkynylpyrimidine-2(1H)-ones as anti-mycobacterial agents” (Bioorg Med Chem, 2016).
≈ marks a conversion by molar mass, not a printed value.

System: Mycobacterium tuberculosis
Assay: Antimycobacterial activity against Mycobacterium bovis BCG assessed as inhibition of mycobacterial replication after 6 days by microplate Alamar blue assay
Format: functional
Conditions: variant bovis BCG, 144 h

Row | SMILES | MIC50 | MIC90
1 | CCCCCCCCC#Cc1c[nH]c(=O)nc1N | 50 µg/mL (≈ 202 µM) | –
2 | CCCCCC#Cc1c[nH]c(=O)nc1N | 12.5 µg/mL (≈ 60.9 µM) | –
3 | Nc1nc(=O)[nH]cc1C#Cc1ccccc1 | 25 µg/mL (≈ 118 µM) | –
4 | CO[C@H]1/C=C/O[C@@]2(C)Oc3c(C)c(O)c4c(O)c(c(/C=N/N5CCN(C)CC5)c(O)c4c3C2=O)NC(=O)/C(C)=C\C=C\[C@H](C)[C@H](O)[C@@H](C)[C@@H](O)[C@@H](C)[C@H](OC(C)=O)[C@@H]1C [RIFAMPIN] | – | 1 µg/mL (≈ 1.22 µM)
